Test [1] concerns Staphylococcus aureus ATCC 29213. Put plainly: MIC, broth microdilution (CLSI) versus planktonic bacteria. In kind it is cell-based. To be noted: ATCC29213; Staphylococcus aureus ATCC 29213; 16-20 h; mode of three independent experiments; read-out: MIC, Sa ATCC 29213.
In test [2] the test system is Enterobacter cloacae NCTC 13406. The test is described as above. In kind it is cell-based. To be noted: NCTC13406; Enterobacter cloacae NCTC 13406; 16-20 h; mode of three independent experiments; read-out: MIC, Ecl NCTC 13406.
The subject of test [3] is human hepatic cell line (HepG2 ATCC HB-8065). Description: Human cell viability assay (CellTiter-Glo). To be noted: Homo sapiens, HepG2, 24 h, read-out: IC50 (μg/mL) HepG2. For orientation: Cellular ATP, detected with luciferase, serves as a proxy for viable cell number.
Test [4] has as its system Streptococcus pneumoniae ATCC 49619. Put plainly: MIC, broth microdilution (CLSI) versus planktonic bacteria. To be noted: ATCC49619; Streptococcus pneumoniae ATCC 49619; 16-20 h; mode of three independent experiments; read-out: MIC, Sp ATCC 49619. The test is classed as cell-based. (In general: In broth dilution the organism is exposed to a series of concentrations in liquid medium.)

Test [5] relates to Escherichia coli ATCC 25922. The description is as above. The test is classed as cell-based. To be noted: ATCC25922; Escherichia coli ATCC 25922; 16-20 h; mode of three independent experiments; read-out: MIC, Ec ATCC 25922.
Test [6] concerns Acinetobacter baumannii NCTC 13420. The description is as above. In kind it is cell-based. To be noted: NCTC13420; Acinetobacter baumannii NCTC 13420; 16-20 h; mode of three independent experiments; read-out: MIC, Ab NCTC 13420.
For test [7], the system named is Pseudomonas aeruginosa ATCC 27853. Described as above. The test is classed as cell-based. To be noted: ATCC27853; Pseudomonas aeruginosa ATCC 27853; 16-20 h; mode of three independent experiments; read-out: MIC, Pa ATCC 27853.
Test [8] relates to Haemophilus influenzae ATCC 49247. Described as above. To be noted: ATCC49247; Haemophilus influenzae ATCC 49247; 16-20 h; mode of three independent experiments; read-out: MIC, Hi ATCC 49247. In kind it is cell-based.
The subject of test [9] is E. coli NCTC 13476. Described as above. The test is classed as cell-based. To be noted: NCTC13476; Escherichia coli NCTC 13476; 16-20 h; mode of three independent experiments; read-out: MIC, Ec NCTC 13476.
Test [10] deals with E. coli MG1655 S83L. The test is classed as cell-based, Escherichia coli. To be noted: compared to the isogenic parent strain E. coli MG1655; S83L mutation on DNA gyrase subunit GyrA.
Test [11] relates to E. coli MG1655 D87G. In kind it is cell-based, Escherichia coli. To be noted: compared to the isogenic parent strain E. coli MG1655; D87G mutation on DNA gyrase subunit GyrA.
Test [12] concerns E. coli ATCC BAA-2452. Description: MIC, broth microdilution (CLSI) versus planktonic bacteria. The test is classed as cell-based. To be noted: Escherichia coli ATCC BAA-2452; 16-20 h; mode of three independent experiments; read-out: MIC, Ec ATCC BAA 2452.
For test [13], the system named is E. coli MG1655. The description is as above. The test is classed as cell-based, Escherichia coli. To be noted: Escherichia coli, MG1655, read-out: MIC, Ec MG1655 WT.
Test [14] relates to Acinetobacter baumannii ATCC 19606. The test is described as above. In kind it is cell-based. To be noted: ATCC19606; Acinetobacter baumannii ATCC 19606; 16-20 h; mode of three independent experiments; read-out: MIC, Ab ATCC 19606.

Values after ≈ are worked out from the molar mass of the structure shown.

For `COc1ccc2ccc(=O)n(CCN(CCN)[C@H]3CC[C@H]4[C@@H](C3)OC(=O)N4c3ccc4c(n3)NC(=O)CO4)c2n1` [Compound 13, 1-(2-{[(3aS,6S,7aR)-2-oxo-3-{3-oxo-2H,3H,4H-pyrido[3,2-b][1,4]oxazin-6-yl}-octahydro-1,3-benzoxazol-6-yl](2-aminoethyl)amino}ethyl)-7-methoxy-1,2-dihydro-1,8-naphthyridin-2-one], the MIC is below 1 µg/mL in [1]; 10 to 100 µg/mL (≈ 18.2 to 182 µM) in test [2]; 1 to 10 µg/mL (≈ 1.82 to 18.2 µM) in test [4]; 1 to 10 µg/mL (≈ 1.82 to 18.2 µM) in [5]; 10 to 100 µg/mL (≈ 18.2 to 182 µM) in [6]; 1 to 10 µg/mL (≈ 1.82 to 18.2 µM) in test [7]. The MIC in test [8] lay within 10 to 100 µg/mL (≈ 18.2 to 182 µM); in test [9] it was 1 to 10 µg/mL (≈ 1.82 to 18.2 µM). The IC50 in test [3] is above 100 µg/mL.

Regarding `NCCOc1ccc2ccc(=O)n(CCN[C@@H]3CC[C@@H]4[C@@H](C3)OC(=O)N4c3ccc4c(n3)NC(=O)CO4)c2c1` [Compound 23, 1-(2-{[(3aR,6R,7aR)-2-oxo-3-{3-oxo-2H,3H,4H-pyrido[3,2-b][1,4]oxazin-6-yl}-octahydro-1,3-benzoxazol-6-yl]amino}ethyl)-7-(2-aminoethoxy)-1,2-dihydroquinolin-2-one], the MIC in test [1] was below 1 µg/mL; in test [2] it was above 100 µg/mL; in test [4], 1 to 10 µg/mL (≈ 1.87 to 18.7 µM); in test [5] it was below 1 µg/mL; in [6], 10 to 100 µg/mL (≈ 18.7 to 187 µM); in [7] it was 1 to 10 µg/mL (≈ 1.87 to 18.7 µM). For the same molecule, the MIC in test [8] is above 100 µg/mL; in [12] it was 1 to 10 µg/mL (≈ 1.87 to 18.7 µM); in [13], 1 to 10 µg/mL (≈ 1.87 to 18.7 µM); in [9], 10 to 100 µg/mL (≈ 18.7 to 187 µM). For the same molecule, the IC50 in [3] was above 100 µg/mL. Moreover, the “Fold increase in MIC, E. coli MG1655 S83L” value in [10] stood at 0.5 fold. In addition, the “Fold increase in MIC, E. coli MG1655 D87G” value in [11] turned out to be 0.5 fold.

`O=C1COc2cnc(N3C(=O)O[C@@H]4C[C@H](NCCn5c(=O)cnc6cc(F)c(F)cc65)CC[C@H]43)nc2N1` [Compound 38, 1-(2-{[(3aR,6R,7aR)-2-oxo-3-{7-oxo-6H,7H,8H-pyrimido[5,4-b][1,4]oxazin-2-yl}-octahydro-1,3-benzoxazol-6-yl]amino}ethyl)-6,7-difluoro-1,2-dihydroquinoxalin-2-one]: the MIC in test [1] was below 1 µg/mL; in test [14] it was 1 to 10 µg/mL (≈ 1.95 to 19.5 µM); in test [2], below 1 µg/mL; in [4], below 1 µg/mL; in test [5], below 1 µg/mL; in [6], 1 to 10 µg/mL (≈ 1.95 to 19.5 µM). In addition, the MIC in test [7] is 1 to 10 µg/mL (≈ 1.95 to 19.5 µM); in test [8], below 1 µg/mL; in [12], 1 to 10 µg/mL (≈ 1.95 to 19.5 µM); in [13], below 1 µg/mL; in test [9], 1 to 10 µg/mL (≈ 1.95 to 19.5 µM). In test [3], the IC50 was 10 to 100 µg/mL (≈ 19.5 to 195 µM). In [10], the “Fold increase in MIC, E. coli MG1655 S83L” value came out at 2 fold.

Regarding `COc1cnc2ccc(=O)n(CCN[C@H]3CC[C@H]4[C@H](C3)OC(=O)N4c3ccc4c(n3)NC(=O)CO4)c2c1` [Compound 42, 7-methoxy-1-{2-[(2-oxo-3-{3-oxo-2H,3H,4H-pyrido[3,2-b][1,4]oxazin-6-yl}-octahydro-1,3-benzoxazol-6-yl)amino]ethyl}-1,2-dihydro-1,5-naphthyridin-2-one], the MIC was below 1 µg/mL in test [1]; 1 to 10 µg/mL (≈ 1.97 to 19.7 µM) in test [14]; below 1 µg/mL in test [2]; below 1 µg/mL in test [4]; below 1 µg/mL in test [5]; below 1 µg/mL in test [6]. Besides, the MIC was 1 to 10 µg/mL (≈ 1.97 to 19.7 µM) in [7], below 1 µg/mL in test [8] and below 1 µg/mL in test [13]. The IC50 in test [3] was above 100 µg/mL. Besides, in [10], the “Fold increase in MIC, E. coli MG1655 S83L” value amounted to 1 fold. Moreover, in test [11], the “Fold increase in MIC, E. coli MG1655 D87G” value came to 2 fold.

`O=C1COc2ccc(N3C(=O)O[C@@H]4C[C@H](NCCn5c(=O)cnc6cc(F)c(F)cc65)CC[C@H]43)nc2N1` [Compound 70, 1-(2-{[(3aR,6R,7aR)-2-oxo-3-{3-oxo-2H,3H,4H-pyrido[3,2-b][1,4]oxazin-6-yl}-octahydro-1,3-benzoxazol-6-yl]amino}ethyl)-6,7-difluoro-1,2-dihydroquinoxalin-2-one]: the MIC in [1], in test [2], in [4], in test [5], in test [6] and in [7] was below 1 µg/mL in each case. Besides, the MIC in [8], in test [12], in test [13] and in [9] was below 1 µg/mL throughout. Further, the IC50 in [3] lay within 10 to 100 µg/mL (≈ 19.5 to 195 µM). The “Fold increase in MIC, E. coli MG1655 S83L” value in test [10] worked out at 2 fold. Moreover, the “Fold increase in MIC, E. coli MG1655 D87G” value in [11] stood at 4 fold.

On to `N#Cc1cnc2ccc(=O)n(CCCN[C@H]3CC[C@H]4[C@H](C3)OC(=O)N4c3ccc4c(n3)NC(=O)CO4)c2c1` [Compound 82, 5-(3-{[(3aS,6S,7aS)-2-oxo-3-{3-oxo-2H,3H,4H-pyrido[3,2-b][1,4]oxazin-6-yl}-octahydro-1,3-benzoxazol-6-yl]amino}propyl)-6-oxo-5,6-dihydro-1,5-naphthyridine-3-carbonitrile], for which the MIC is below 1 µg/mL in test [1]; 1 to 10 µg/mL (≈ 1.94 to 19.4 µM) in [14]; 1 to 10 µg/mL (≈ 1.94 to 19.4 µM) in test [2]; below 1 µg/mL in [4]; below 1 µg/mL in [5]; 1 to 10 µg/mL (≈ 1.94 to 19.4 µM) in test [6]. Besides, the MIC is 1 to 10 µg/mL (≈ 1.94 to 19.4 µM) in [7], below 1 µg/mL in test [8], 1 to 10 µg/mL (≈ 1.94 to 19.4 µM) in [12] and below 1 µg/mL in [13]. In test [10], the “Fold increase in MIC, E. coli MG1655 S83L” value stood at 0.5 fold. For the same molecule, in test [11], the “Fold increase in MIC, E. coli MG1655 D87G” value is 1 fold.

Consider `COc1ccc2ccc(=O)n(CCCN[C@H]3CC[C@H]4[C@H](C3)OC(=O)N4c3ccc4c(n3)NC(=O)CO4)c2n1` [Compound 83, 1-(3-{[(3aS,6S,7aS)-2-oxo-3-{3-oxo-2H,3H,4H-pyrido[3,2-b][1,4]oxazin-6-yl}-octahydro-1,3-benzoxazol-6-yl]amino}propyl)-7-methoxy-1,2-dihydro-1,8-naphthyridin-2-one], for which the MIC in test [1], in test [14], in test [2], in test [4], in [5] and in [6] was below 1 µg/mL each time. In addition, the MIC was 1 to 10 µg/mL (≈ 1.92 to 19.2 µM) in test [7], below 1 µg/mL in test [8], below 1 µg/mL in test [12] and below 1 µg/mL in test [9]. Moreover, the IC50 in test [3] is 10 to 100 µg/mL (≈ 19.2 to 192 µM).

Regarding `O=C1COc2ccc(N3C(=O)O[C@@H]4C[C@H](NCCn5c(=O)cnc6ccc(F)cc65)CC[C@H]43)nc2N1` [Compound 86, 1-(2-{[(3aR,6R,7aR)-2-oxo-3-{3-oxo-2H,3H,4H-pyrido[3,2-b][1,4]oxazin-6-yl}-octahydro-1,3-benzoxazol-6-yl]amino}ethyl)-7-fluoro-1,2-dihydroquinoxalin-2-one], the MIC in test [1], in [14], in test [2], in [4], in test [5] and in [6] was below 1 µg/mL each time. Further, the MIC was 1 to 10 µg/mL (≈ 2.02 to 20.2 µM) in test [7], below 1 µg/mL in test [8], below 1 µg/mL in test [12] and below 1 µg/mL in test [9]. Also, in test [3], the IC50 was in the range of 10 to 100 µg/mL (≈ 20.2 to 202 µM).

Turning to `C=CCOc1ccc2ccc(=O)n(CCN[C@H]3CC[C@H]4[C@H](C3)OC(=O)N4c3ccc4c(n3)NC(=O)CO4)c2c1` [Compound 89, 1-(2-{[(3aS,6S,7aS)-2-oxo-3-{3-oxo-2H,3H,4H-pyrido[3,2-b][1,4]oxazin-6-yl}-octahydro-1,3-benzoxazol-6-yl]amino}ethyl)-7-(prop-2-en-1-yloxy)-1,2-dihydroquinolin-2-one], the MIC was below 1 µg/mL in [1]; below 1 µg/mL in test [14]; 1 to 10 µg/mL (≈ 1.88 to 18.8 µM) in [2]; below 1 µg/mL in test [4]; below 1 µg/mL in test [5]; below 1 µg/mL in test [6]. Besides, the MIC in test [7] is 1 to 10 µg/mL (≈ 1.88 to 18.8 µM); in test [8], 1 to 10 µg/mL (≈ 1.88 to 18.8 µM); in [12], below 1 µg/mL; in test [9] it was 1 to 10 µg/mL (≈ 1.88 to 18.8 µM). Also, in test [3], the IC50 is 10 to 100 µg/mL (≈ 18.8 to 188 µM).
